Experimental findings from patent US7557133B2, “Caspase inhibitors containing isoxazoline ring” (LG Life Sciences Ltd., priority 2003, dated 2009) are described below.

The test system of experiment [1] is Jurkat cell (ATCC TIB-152). Put plainly: Jurkat cell apoptosis by Fas antibody, WST-1 method. The experiment is classed as cell-based. To be noted: apoptosis using Fas antibody, WST-1; for IC50: Homo sapiens, Jurkat. How it is done:
The […] inhibitory activity of the inhibitors was determined by subjecting Jurkat cell (ATCC TIB-152) to apoptosis using Fas antibody (Upstate Biotech 05-201) and by detecting the color change according to the WST-1 method known in Francoeur A. M. and Assalian A. (1996) Biochemica 3, 19-25 to observe the amount of alive Jurkat cells when the cells were treated by the inhibitor. Spectra MAX 340 Spectrometer of Molecular Device Co. was used at the absorbance wavelength of 440 nm.
A general note: Tetrazolium assays rely on reduction of a dye to a coloured formazan, in cell work by metabolically active cells.

The target in experiment [2] is T1, caspase-8 (Homo sapiens, UniProt Q14790).
T1 construct: p10 and p20 subunits (Thornberry, N. A. et al, Nature, 1992, 356, 768) were expressed in E. coli; made in house; host or cells: E. coli
T1 sequence (Q14790 217-374 limits assumed, species assumed): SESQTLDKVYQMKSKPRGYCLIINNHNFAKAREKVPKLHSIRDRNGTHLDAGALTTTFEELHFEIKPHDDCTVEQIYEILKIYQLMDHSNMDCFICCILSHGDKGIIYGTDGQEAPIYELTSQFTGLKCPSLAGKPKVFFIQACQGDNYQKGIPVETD
T1 sequence (Q14790 385-479 limits assumed, species assumed): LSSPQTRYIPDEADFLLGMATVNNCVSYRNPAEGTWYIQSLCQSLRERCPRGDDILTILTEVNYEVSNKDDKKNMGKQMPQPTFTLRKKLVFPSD
Kind of experiment: Caspase-8 inhibitory effect (fluorescent substrate AcDEVD-AFC). The class given is biochemical. Conditions: 25° C., 50 μM AcDEVD-AFC, 2.1 nM caspase-8; for kinact/KI: pH 7.5, read-out: Caspase-8 Kobs/[I] (converted). How it is done:
Caspase-1 and caspase-8 known as cysteine proteases in the form of α2β2 were expressed, purified, and activated by modifying a method known in Thornberry, N. A. et al, Nature, 1992, 356, 768. Thornberry, N. A. Methods in Enzymology, 1994, 244, 615. Walker, N. P. C. et al. Cell, 1994, 78, 343, and caspase-9 was also purified by a similar method, and the inhibitory activity against them was tested. Briefly describing, p10 and p20 subunits (Thornberry, N. A. et al, Nature, 1992, 356, 768) were expressed in E. coli and purified by nickel column and anionic exchange chromatography to give caspase-1, caspase-8 and caspase-9. The fluorescent substrate AcYVAD-AFC for thus obtained caspase-1, AcDEVD-AFC for caspase-8, and AcLEHD-AFC for caspase-9 were used for determining specific activity of the synthesized inhibitors. The enzyme reaction was carried out at 25° C. with various concentrations of the inhibitors in a buffer solution containing 50 mM HEPES(pH 7.50), 10% (w/v) sucrose, 0.1% (w/v) CHAPS, 100 mM NaCl, 1 mM EDTA, and 10 mM DTT in the presence of 50 μM AcYVAD-AFC for 10 nM caspase-1, 50 μM AcDEVD-AFC for 2.1 nM caspase-8, and 150 μM AcLEHD-AFC for 200 nM caspase-9. The inhibitory constants Ki and Kobs of the inhibitors were determined by measuring the reaction velocity with the time lapse using a fluorescent spectrometer and by obtaining the initial rate constant. Ki was calculated from the Lineweaver Burk Plot, and Kobs from the following Equation 1. Kobs=−ln(1−At/Aoo)/t Equation 1
At means cleavate rate (%) at time t, and
Aoo means the maximum cleavage rate (%).
Spectra MAX GeminiXS Fluorescent Spectrometer of Molecular Device Co. was used at the excitation wavelength of 405 nm and the emission wavelength of […].

By IC50 is commonly meant the midpoint of a concentration-inhibition curve. Read a low IC50 as inhibition by little substance. In experiment [1], `CCC1(C(=O)NC(CC(=O)O)C(=O)CF)CC(c2ccccc2C(C)C)=NO1` (stereo not drawn) [Iaa1, 3-({[5-Ethyl-3-(2-isopropylphenyl)-4,5-dihydro-5-isoxazolyl]carbonyl}amino)-5-fluoro-4-oxopentanoic acid] had an IC50 of 330 nM. The kinact/KI in experiment [2] is 3000 M⁻¹ s⁻¹.

Molecule `CCC1(C(=O)NC(CC(=O)O)C(=O)CF)CC(c2cccc(C(C)(C)C)c2)=NO1` (stereo not drawn) [Iaa2, 3-[({3-[3-(tert-Butyl)phenyl]-5-ethyl-4,5-dihydro-5-isoxazolyl}carbonyl)amino]-5-fluoro-4-oxopentanoic acid] had an IC50 in experiment [1] of 560 nM. Also, the kinact/KI in experiment [2] was 5330 M⁻¹ s⁻¹.

`CCC1(C(=O)NC(CC(=O)O)C(=O)CF)CC(c2ccc(C(C)(C)C)cc2)=NO1` (stereo not drawn) [Iaa3, 3-[({3-[4-(tert-Butyl)phenyl]-5-ethyl-4,5-dihydro-5-isoxazolyl}carbonyl)amino]-5-fluoro-4-oxopentanoic acid]: half-maximal inhibition in experiment [1] (IC50) was put at 2650 nM. Moreover, in experiment [2], the kinact/KI was 2330 M⁻¹ s⁻¹.

For `CC(C)c1ccccc1C1=NO[C@@](C(=O)NC(CC(=O)O)C(=O)CF)(C(C)C)C1` (stereo partly drawn) [Iaa4, 5-Fluoro-3-({[(5R)-5-isopropyl-3-(2-isopropylphenyl)-4,5-dihydro-5-isoxazolyl]carbonyl}amino)-4-oxopentanoic Acid], in experiment [1], the IC50 was found to be 670 nM. For the same molecule, the kinact/KI in experiment [2] is 8330 M⁻¹ s⁻¹.

For the molecule `CC(C)[C@@]1(C(=O)NC(CC(=O)O)C(=O)CF)CC(c2cccc(C(C)(C)C)c2)=NO1` (stereo partly drawn) [Iaa5, 3-[({(5R)-3-[3-(tert-butyl)phenyl]-5-isopropyl-4,5-dihydro-5-isoxazolyl}carbonyl)amino]-5-fluoro-4-oxopentanoic acid], in experiment [1], half-maximal inhibition (IC50) was put at 300 nM. In addition, in experiment [2], the kinact/KI was 5000 M⁻¹ s⁻¹.

`CC(C)C1(C(=O)NC(CC(=O)O)C(=O)CF)CC(c2cccc(-c3ccccc3)c2)=NO1` (stereo not drawn) [Iaa6, 3-{[(3-[1,1′-biphenyl]-3-yl-5-isopropyl-4,5-dihydro-5-isoxazolyl)carbonyl]amino}-5-fluoro-4-oxopentanoic acid] registered an IC50 in experiment [1] of 2450 nM. Further, the kinact/KI in experiment [2] is 3330 M⁻¹ s⁻¹.

With `CCC1(C(=O)NC(CC(=O)O)C(=O)CF)CC(c2ccccn2)=NO1` (stereo not drawn) [Iaa7, 3-({[5-Ethyl-3-(2-pyridinyl)-4,5-dihydro-5-isoxazolyl]carbonyl}amino)-5-fluoro-4-oxopentanoic Acid], in experiment [1], half-maximal inhibition (IC50) was put at 2270 nM. In addition, in experiment [2], the kinact/KI was 733 M⁻¹ s⁻¹.

In turn, `CCC1(C(=O)NC(CC(=O)O)C(=O)CF)CC(c2cc(C(C)(C)C)ccn2)=NO1` (stereo not drawn) [Iaa8, 3-[({3-[4-(tert-Butyl)-2-pyridinyl]-5-ethyl-4,5-dihydro-5-isoxazolyl}carbonyl)amino]-5-fluoro-4-oxopentanoic Acid] registered an IC50 in experiment [1] of 700 nM. Besides, the kinact/KI in experiment [2] was 7500 M⁻¹ s⁻¹.

In turn, `CC(C)[C@@]1(C(=O)NC(CC(=O)O)C(=O)CF)CC(c2cc(C(C)(C)C)ccn2)=NO1` (stereo partly drawn) [Iaa9, 3-[({(5R)-3-[4-(tert-butyl)-2-pyridinyl]-5-isopropyl-4,5-dihydro-5-isoxazolyl}carbonyl)amino]-5-fluoro-4-oxopentanoic acid] returned an IC50 in experiment [1] of 1240 nM. In addition, the kinact/KI in experiment [2] is 3830 M⁻¹ s⁻¹.

The molecule `CCC1(C(=O)NC(CC(=O)O)C(=O)CF)CC(c2cc(CC(C)C)ccn2)=NO1` (stereo not drawn) [Iaa10, 3-({[5-Ethyl-3-(4-isobutyl-2-pyridinyl)-4,5-dihydro-5-isoxazolyl]carbonyl}amino)-5-fluoro-4-oxopentanoic acid] returned an IC50 in experiment [1] of 1020 nM. Moreover, the kinact/KI in experiment [2] is 2500 M⁻¹ s⁻¹.

Turning to `CCC1(C(=O)NC(CC(=O)O)C(=O)CF)CC(c2cc(C(C)=O)ccn2)=NO1` (stereo not drawn) [Iaa11, 3-({[3-(4-Acetyl-2-pyridinyl)-5-ethyl-4,5-dihydro-5-isoxazolyl]carbonyl}amino)-5-fluoro-4-oxopentanoic acid], the IC50 in experiment [1] worked out at 31000 nM. In addition, the kinact/KI in experiment [2] is 1070 M⁻¹ s⁻¹.

In experiment [1], `CCC1(C(=O)NC(CC(=O)O)C(=O)CF)CC(c2cc(C3CC3)ccn2)=NO1` (stereo not drawn) [Iaa12, 3-({[3-(4-Cyclopropyl-2-pyridinyl)-5-ethyl-4,5-dihydro-5-isoxazolyl]carbonyl}amino)-5-fluoro-4-oxopentanoic acid] showed an IC50 of 700 nM. The kinact/KI in experiment [2] is 3170 M⁻¹ s⁻¹.

`CCC1(C(=O)NC(CC(=O)O)C(=O)CF)CC(c2cc(C3CCCC3)ccn2)=NO1` (stereo not drawn) [Iaa13, 3-({[3-(4-Cyclopentyl-2-pyridinyl)-5-ethyl-4,5-dihydro-5-isoxazolyl]carbonyl}amino)-5-fluoro-4-oxopentanoic Acid] had an IC50 in experiment [1] of 350 nM. Moreover, in experiment [2], the kinact/KI was 5170 M⁻¹ s⁻¹.

`CC(C)[C@@]1(C(=O)NC(CC(=O)O)C(=O)CF)CC(c2cc(C3CCCC3)ccn2)=NO1` (stereo partly drawn) [Iaa14, 3-({[(5R)-3-(4-cyclopentyl-2-pyridinyl)-5-isopropyl-4,5-dihydro-5-isoxazolyl]carbonyl}amino)-5-fluoro-4-oxopentanoic Acid] registered an IC50 in experiment [1] of 790 nM. Besides, the kinact/KI in experiment [2] is 6830 M⁻¹ s⁻¹.

As for `CCC1(C(=O)NC(CC(=O)O)C(=O)CF)CC(c2cc(C3CCCCC3)ccn2)=NO1` (stereo not drawn) [Iaa15, 3-({[3-(4-Cyclohexyl-2-pyridinyl)-5-ethyl-4,5-dihydro-5-isoxazolyl]carbonyl}amino)-5-fluoro-4-oxopentanoic Acid], inhibition in experiment [1] was half-maximal at 720 nM (IC50). Also, the kinact/KI in experiment [2] is 7170 M⁻¹ s⁻¹.

In experiment [1], `CCC1(C(=O)NC(CC(=O)O)C(=O)CF)CC(c2nccc3c2CCCC3)=NO1` (stereo not drawn) [Iaa16, 3-({[5-Ethyl-3-(5,6,7,8-tetrahydro-1-isoquinolinyl)-4,5-dihydro-5-isoxazolyl]carbonyl}amino)-5-fluoro-4-oxopentanoic acid] yielded a 50% inhibitory concentration (IC50) of 730 nM. Besides, in experiment [2], the kinact/KI is 10300 M⁻¹ s⁻¹.

In turn, `CC(C)C1(C(=O)NC(CC(=O)O)C(=O)CF)CC(c2cc(-c3ccccc3)ccn2)=NO1` (stereo not drawn) [Iaa17, 5-Fluoro-3-({[5-isopropyl-3-(4-phenyl-2-pyridinyl)-4,5-dihydro-5-isoxazolyl]carbonyl}amino)-4-oxopentanoic Acid] yielded an IC50 in experiment [1] of 1140 nM. Further, in experiment [2], the kinact/KI is 3000 M⁻¹ s⁻¹.

In experiment [1], `CC(C)[C@@]1(C(=O)N[C@@H](CC(=O)O)C(=O)COP(=O)(c2ccccc2)c2ccccc2)CC(c2nccc3ccccc23)=NO1` [Iaa18, (3S)-5-[(diphenylphosphoryl)oxy]-3-({[(5R)-5-isopropyl-3-(1-isoquinolinyl)-4,5-dihydro-5-isoxazolyl]carbonyl}amino)-4-oxopentanoic acid] returned an IC50 of 1500 nM. In experiment [2], the kinact/KI was 8670 M⁻¹ s⁻¹.

Turning to `C=CC(=O)[C@H](CC(=O)O)NC(=O)[C@]1(C(C)C)CC(c2nccc3ccccc23)=NO1` [Iaa22, (3S)-3-({[(5R)-5-isopropyl-3-(1-isoquinolinyl)-4,5-dihydro-5-isoxazolyl]carbonyl}amino)-4-oxo-5-hexenoic acid], the “Caspase-8 Kobs/[I]” value in experiment [2] is given as “No Activity”.

For `CCC1(C(=O)N[C@@H](CC(=O)O)C(=O)COc2ccccn2)CC(c2ccccc2C(C)C)=NO1` (stereo partly drawn) [Iaa24, (3S)-3-({[5-ethyl-3-(2-isopropylphenyl)-4,5-dihydro-5-isoxazolyl]carbonyl}amino)-4-oxo-5-(2-pyridinyloxy)pentanoic Acid], the “Caspase-8 Kobs/[I]” value in experiment [2] is on record as “No Activity”.

As for `CC(C)[C@@]1(C(=O)N[C@@H](CC(=O)O)C(=O)CF)CC(c2nccc3ccccc23)=NO1` [Iii-1, (3S)-5-fluoro-3-({[(5R)-5-isopropyl-3-(1-isoquinolinyl)-4,5-dihydro-5-isoxazolyl]carbonyl}amino)-4-oxopentanoic acid], the kinact/KI in experiment [2] was 383000 M⁻¹ s⁻¹.

For the molecule `CC(C)[C@@]1(C(=O)N[C@H](CC(=O)O)C(=O)CF)CC(c2nccc3ccccc23)=NO1` [Iii-2, (3R)-5-fluoro-3-({[(5R)-5-isopropyl-3-(1-isoquinolinyl)-4,5-dihydro-5-isoxazolyl]carbonyl}amino)-4-oxopentanoic acid], the kinact/KI in experiment [2] was 7830 M⁻¹ s⁻¹.

Turning to `CCOC(=O)/C=C/[C@H](CC(=O)O)NC(=O)[C@]1(C(C)C)CC(c2nccc3ccccc23)=NO1` [Irr, (3S,4E)-6-ethoxy-3-({[(5R)-5-isopropyl-3-(1-isoquinolinyl)-4,5-dihydro-5-isoxazolyl]carbonyl}amino)-6-oxo-4-hexenoic Acid], in experiment [1], the “Jurkat cell IC50” value is given as “No Activity”.

On to `CC(C)[C@@]1(C(=O)N[C@H](/C=C/S(C)(=O)=O)CC(=O)O)CC(c2nccc3ccccc23)=NO1` [Iss, (3S,4E)-3-({[(5R)-5-isopropyl-3-(1-isoquinolinyl)-4,5-dihydro-5-isoxazolyl]carbonyl}amino)-5-(methylsulfonyl)-4-pentenoic acid], for which the “Jurkat cell IC50” value in experiment [1] is reported as “No Activity”.
